Data on one compound can be found in publication PMC6403019, “Nanoformulated Antiretroviral Therapy Attenuates Brain Metabolic Oxidative Stress” (Molecular Neurobiology, 2018).

The test system of data set [1] is mouse embryonic neuron cells. Briefly: Cellular uptake of DTG in neurons (LC-MS/MS MRM). Format: in vitro ADME. To be noted: treated with 100 μM. From the text: Cycle time was 150 ms for each transition.
Data set [2] can be described thus: Plasma concentration after intramuscular injection of free DTG. Conditions: single free DTG injection, 45 mg/kg. Format: in vivo, mice.
Data set [3] concerns mouse embryonic neuron cells. Briefly: ROS formation (DCFDA) in neurons. Format: cell-based. Conditions: administered at 100 and 500 μM. On the procedure: (§1) ROS were measured in neuron and MDM cells with the probe DCFDA (dichlorofluorescin diacetate, abcam, Cambridge, MA). Cells were seeded on black, clear-bottomed 96-well plates. After cells were pre-cultured with different treatments, the media were removed and the cells were washed with 1× buffer (supplied with the kit). Cells were incubated for 45 min in 1× buffer containing 25 μM DCFDA at 37 °C. DCF production was measured by fluorescence spectroscopy with excitation wavelength at 485 nm and emission wavelength at 535 nm. In this study, the cells were treated with increasing concentrations of free DTG, nano-DTG, and various vehicle, positive, and negative controls to compare ROS generation and lactate dehydrogenase (LDH)-based cytotoxicity generated by such treatments. […] TBHP (tert-butyl hydroperoxide; 10 μM) and PBS were used as the positive and negative controls, respectively. The vehicle control for nanoformulated DTG was composed of poloxamer micelles without the drug. […] Specifically, cells (both MDM and neurons) were treated for 2 h with various vehicle or drug concentrations. Then, cells were washed and new media was added, and after 24-h culture, cells were challenged with TBHP for 2 h, followed by fluorescence-based ROS measurements.

The test system of data set [4] is mouse embryonic neuron cells. Briefly: ROS levels after TBHP challenge in neurons. Format: cell-based. Conditions: 100 μM drug, then 10 μM TBHP; normalized with TBHP-positive control. As for the experimental part: as §1
A further data set deals with neuron and MDM cells. Put plainly: LDH-based cytotoxicity. Conditions: 500 μM in the dosing medium. Format: cell-based.
In the next data set the test system is brain metabolome. Put plainly: Brain region-specific global metabolomics (LC-MS) after DTG injections. To be noted: five brain regions, Fig. 4. Format: in vivo, mice (Balb/cJ). On the procedure:
Brain tissue subregions were extracted as previously described. Briefly, 0.6 mL of cold methanol:H2O (4:1, v/v) were added per 10 mg tissue (solvent volume was adjusted accordingly to tissue weight). Homogenization was performed with glass beads in a homogenizer and sonicated in an ice bath for 10 min. The mixtures were then transferred to 1.5-mL Eppendorf vials and rinsed with additional 200 μL extraction solvent. To precipitate proteins, the samples were incubated for 1 h at − 20 °C, followed by a 15-min centrifugation at 13,000 rpm at 4 °C. The resulting supernatant was evaporated to dryness in a vacuum concentrator. The dry extracts were then reconstituted in acetonitrile:H2O (1:1, v/v), normalized by tissue weight, sonicated for 10 min, and centrifuged for 15 min at 13000 rpm and 4 °C to remove insoluble debris. The supernatants were transferred to HPLC vials and stored at − 80 °C prior to LC-MS analysis.
The extracts were analyzed on a 6550 iFunnel QTOF mass spectrometer coupled with a 1290 UPLC system (Agilent Technologies, Santa Clara, CA). For global metabolomics, a Luna Aminopropyl, 3 μm, 150 mm × 2.0 mm I.D. HILIC column (Phenomenex, Torrance, CA) was used. […]
LC-MS data were converted to mzXML files using Masshunter Acquisition Software (Agilent Masshunter 6.0B). […] The relative quantification of metabolite features was based on extracted ion chromatogram areas. […]

Details of data set [5]: method as in PMID 21716073, PMID 23824675. Conditions: HIV-infected adults, ten doses of monotherapy with 50 mg once daily DTG tablets; cited from earlier work.
The subject of data set [6] is human MDM. Put plainly: ROS formation (DCFDA) in MDM. Format: cell-based. To be noted: 100 μM. On the procedure: as §1
For data set [7], the system named is human MDM. Briefly: ROS levels after TBHP challenge in MDM. Format: cell-based. To be noted: 10 to 100 μM drug, then 10 μM TBHP. As for the experimental part:
as §1

For the compound `C[C@@H]1CCO[C@H]2Cn3cc(C(=O)NCc4ccc(F)cc4F)c(=O)c(O)c3C(=O)N12` [free DTG, dolutegravir], the “DTG concentration in neurons” value in data set [1] came out at 168 ng/10^6 cells. For the same compound, the plasma concentration entry in [2] is “up to 11.29 μg/mL”. Also, the “ROS fold change vs vehicle control, neurons” value in data set [3] is listed as “up to 1.5 times of control”. Further, the “ROS fold change after TBHP challenge, neurons” value in [4] was found to be 4. In the data set on neuron and MDM cells, the “cytotoxicity (LDH-based)” value is “did not show significant cytotoxicity”. In addition, the “changes of oxidative stress metabolites (ascorbic acid, threonate, GSH, GSSG) vs controls” value in the data set with brain metabolome is listed as “statistically significant (p value < 0.05) with the exception of ascorbic acid levels observed in the H”. Besides, the “steady-state plasma concentration (Cmax)” value in data set [5] was 3340 ng/mL. For the same compound, in the data set on human MDM [6], the “ROS fold change vs vehicle control, MDM” value came to 0.8 times. In the data set with human MDM [7], the “ROS response to TBHP challenge, MDM” value is “induced ROS formation in a dose-response at higher concentrations (60 to 100 μM)”.
